Data reported in US5935945A, “Methods of treating or preventing cardiac arrhythmia” (Merck & Co., Inc., priority 1997, dated 1999).

Tests used:
[1] = test system: IK1 (inward rectifier K^+ current); assay: Voltage-clamp measurement of IK1 in guinea pig ventricular myocytes; type: cell-based
Experimental: Guinea pig ventricular myocytes were isolated using a modification of the procedure described by Mitra et al., Am. J. Physiol. 249:H1056-60 (1985). Excised hearts were perfused through the aorta (retrograde fashion) at a rate of 10 ml/min with oxygenated, warmed (37° C.) solutions described below. The heart was initially perfused for 7 minutes with a Tyrode's solution containing, (in mM): 132 NaCl, 4 KCl, 1.2 MgCl2, 10 HEPES, 5 glucose, pH=7.2. The heart was then perfused with the same nominally Ca^2+ -free solution containing 150 units/ml Type II collagenase (Worthington) and 0.5 units/ml Type XIV protease (Sigma) for 8 minutes. This perfusate was followed by a Tyrode's solution containing 0.2 mM CaCl2 (without enzymes) for 5 minutes. The digested ventricles were cut into small pieces and gently shaken until cells were visibly dispersed. The cells were stored at room temperature until use, within 8 hours after isolation.
The suction microelectrode technique described by Giles, W. R. and Shibata, E. F., "Voltage clamp of bull-frog cardiac pacemaker cells: a quantitative analysis of potassium currents", J. Physiol. 368:265-292 (1985) was used to voltage clamp the cells. Microelectrodes were made by using a two stage puller from square bore (1.0 mm o.d.) borosilicate capillary tubing. Pipettes were filled with 0.5 M K gluconate, 25 mM KCl and 5 mM K2 ATP. The electrodes had resistances of 3 to 7 M.OMEGA. when filled with this solution. After establishing whole-cell recording mode, negative pressure was maintained on the pipette using a 1 ml gas-tight syringe attached via air tight tubing to the suction port of the microelectrode holder. This minimized dialysis of the cell with the pipette solution.
To record K^+ currents, the cells were bathed in a Ca^2+ -free Tyrode's solution containing […]. […] To record Ca^2+ currents, the cells were bathed in Tyrode's solution containing 1.8 mM Ca^2+ without nisoldipine. The cell chamber was superfused with solutions at a rate of 1-2 ml/minute, while maintaining the temperature at 35±1° C. A List EPC-7 clamp amplifier was used to voltage clamp the isolated cells. […] (Sanguinetti M. C. and Jurkiewicz, N. K., "Two components of cardiac delayed rectifier K^+ current: Differential sensitivity to block by Class III antiarrhythmic agents", J. Gen Physiol 1990; 96:194-214.) Data was analyzed as % block from control membrane currents.
Nisoldipine was prepared as a 4 mM stock solution in polyethylene glycol 200. […] At the final concentrations used neither polyethylene glycol 200 nor dimethyl sulfoxide had any effect on any of the measured membrane currents.
Selectivity for block of cardiac K^+ channels, IK1, IKr, and IKs was determined as previously described in guinea pig ventricular myocytes (U.S. Pat. No. 5,428,031).

[2] = target: T1, hKv1.5 (Homo sapiens, UniProt P22460); assay: Voltage-clamp measurement of hKv1.5 current expressed in Chinese hamster ovary (CHO) cells; type: cell-based; conditions: rested state block, first pulse; 150 ms pulses to +40 mV from -80 mV; room temperature (22-24° C); read-out: Rested State IC50, CHO Cells Expressing hKv1.5
T1 construct: expressed in transfected cells
T1 sequence (P22460 whole entry): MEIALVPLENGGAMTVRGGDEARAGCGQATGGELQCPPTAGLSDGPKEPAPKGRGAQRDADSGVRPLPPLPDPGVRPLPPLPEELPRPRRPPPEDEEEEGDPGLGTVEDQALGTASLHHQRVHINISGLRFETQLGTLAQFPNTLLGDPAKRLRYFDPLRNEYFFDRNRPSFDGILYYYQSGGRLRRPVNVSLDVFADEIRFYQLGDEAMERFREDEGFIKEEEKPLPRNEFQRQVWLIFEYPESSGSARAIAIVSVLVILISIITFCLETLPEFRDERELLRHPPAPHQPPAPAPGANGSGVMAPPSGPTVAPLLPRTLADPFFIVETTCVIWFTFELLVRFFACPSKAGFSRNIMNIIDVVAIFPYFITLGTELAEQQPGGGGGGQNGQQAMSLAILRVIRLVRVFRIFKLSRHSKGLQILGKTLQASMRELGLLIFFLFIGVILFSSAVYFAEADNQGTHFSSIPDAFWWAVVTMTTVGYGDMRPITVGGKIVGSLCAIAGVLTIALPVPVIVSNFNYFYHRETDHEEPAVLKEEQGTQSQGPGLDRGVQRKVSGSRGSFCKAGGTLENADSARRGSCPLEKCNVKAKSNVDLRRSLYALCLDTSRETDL
Experimental: Expression of Kv1.5 in CHO Cells
CHOKI cells were plated at 2.7×10^4 cells/60 mm dish and incubated at 37° C., in a 5% CO2 environment for three days. Cells were then washed twice and covered with 3 ml of OptiMEM medium (Gibco). Plasmid/DOTAP solution (consisting of […] of Kv1.5 in pcDNAI/Neo and […] DOTAP transfection reagent (Boehringer Mannheim) in 1 ml of OptiMEM) was added dropwise to each plate while swirling. Plates were incubated overnight and the media then changed to 5 mls of F12 (Gibco) supplemented with 10% FBS (Sigma), 1,000 U/ml penicillin […] streptomycin (Gibco), and 2 mM glutamine (Gibco). After two more days, the cells were trypsinized and replated on 100 mm dishes in supplemented F12 media including 1 mg/ml G418 (Gibco). The medium was changed daily until nontransfected cells were killed. Cell lines were grown from individual clones and tested for expression of Kv1.5 using both the ^86 RB efflux assay and voltage clamp protocols. […] These cells were maintained in culture and on each experimental day were freshly isolated by mild trypsinization.
The patch-clamp technique was used to record ionic currents in the whole-cell configuration. Patch pipettes were obtained using a two stage puller from square bore (1.0 mm o.d.) borosillicate capillary tubing. Pipettes were filled with the following solution (in mM/L): 110 K-Gluconate or K-Aspartate, 20 KCl, 5 MgATP, 5 EGTA, 5-10 HEPES, pH 7.2. […] Following seal formation, the membrane was ruptured by gentle suction to establish the whole-cell configuration, and negative pressure was maintained on the pipette using a 1 ml gas-tight syringe attached via air tight tubing to the suction port of the microelectrode holder.
Kv1.5 currents were elicited by 150 ms depolarizing test pulses to +40 mV from a holding potential of -80 mV. The effects of test agents were assessed at steady-state. Data was analyzed as % block from control current amplitude. […] All experiments were performed at room temperature (22-24° C.). […]

In the case of `COc1ccc(-n2nc(Sc3ccc(Cl)cc3)c(C)c(C#N)c2=O)cc1` [Compound A, 6-(4-Chlorophenylthio)-2-(4-methoxyphenyl)-5-methyl-3-oxo-2,3-dihydropyridazine-4-carbonitrile], the “% Block (Guinea Pig Ventricle) IK1” value ([1]; @ 10 μM) is reported as 6% and the IC50 [2] is reported as 230 nM.
For `COc1ccc(-n2nc(Sc3ccc(C)cc3)c(C)c(C#N)c2=O)cc1` [Compound B], the “% Block (Guinea Pig Ventricle) IK1” value ([1]; @ 3 μM) was 4.4% and the IC50 [2] was 120 nM.
In the case of `Cc1cc(C)c(CP(=O)(c2ccccc2)c2ccccc2)c(-c2ccc(F)c(C)c2)c1` [Compound C, 2-(Diphenylphosphinylmethyl)-4'-fluoro-3,5,3'-trimethyl-biphenyl], the “% Block (Guinea Pig Ventricle) IK1” value ([1]; @ 3 μM) is reported as 15.1% and the IC50 [2] is reported as 278 nM.
